# According to US12516082B2, “Metal-carbohydrate complex” (ARCZONE K.K., priority 2020, dated 2026):
# How the values were obtained:
# Assay type in all cases: cell-based, mouse
# MIN6 [1] = test: Proportion of dead cells by propidium iodide, MIN6 at 4 DIV in culture
# Description: (§1) A mouse pancreatic β-cell tumorigenic (insulinoma) cell line MIN6 (Miyazaki J. et al., Endocrinology 127:126-132, 1990) was used to perform the following experiment. Here, all experiments which include an experiment where the above-described compound B (hereinafter called LGG) is administered and an experiment where the above-described compound A (hereinafter called DGG) is administered and in which about 1,000 MIN6 cells were placed in 96 wells were carried out by taking care to avoid external disturbances as much as possible.
# MIN6 cells derived from mouse pancreas are a heterogeneous cell population (Yamato, E. et al., PLOS One 8: e61211, 2013). Up to about 4 to 5 DIV after the start of culture, normal cells, that is, insulin-producing β-cells of pancreatic islets of Langerhans accounted for the majority. […]
# Specifically, LGG and DGG were administered to MIN6 at 0 to 1,000 μm at 4 DIV in culture, and after the elapse of 90 minutes, the proportion of the number of dead cells evaluated using a dead cell marker propidium iodide (PI) was measured as a function of their concentrations. […] However, the vertical axis is a value (%) normalized by the fluorescence intensity of the total number of cells assuming that the number of dead cells at a concentration of 1,000 μm is the total number of cells in each well. […]
# MIN6 [2] = test: Optical microscope observation of cell conditions, MIN6 at 5 DIV, with or without PHT
# Description: as §1
# Here, a further experiment was carried out to verify whether the LGG-induced cell death clearly shown in FIG. 2 was indeed caused by the intracellular uptake of LGG. Specifically, whether the cell death is inhibited was examined by administering LGG in the presence of phloretin (hereinafter called PHT).
# PHT functions as an inhibitor on various membrane transport proteins such as water channel proteins or glucose transporter proteins (Ono K. et al., Cancers 12:850, 2020). […] That is, it is estimated that, when an L-glucose derivative is applied to MIN6 cells in the presence of PHT, incorporation of LGG into “cells into which the L-glucose derivative can be incorporate” which are partially present in a heterogeneous cell population is inhibited by the effect of inhibiting a non-transporter type transport mechanism by PHT. […]
# MIN6 [3] = test: Calcein fluorescence intensity (activity of living cells), MIN6 at 5 DIV, with or without PHT; details: FIG. 5
# Description: as §1
# Furthermore, the effect of LGG on cells was quantitatively analyzed in the presence or absence of PHT. Specifically, similarly to the cases of FIG. 3 described above, the fluorescence intensity of calcein, which is a fluorescent marker representing activities of living cells, was evaluated for the case (A) where LGG was not administered to MIN6 (at 5 DIV) (control experiment), the case (B) where 100 μm LGG was administered thereto for 10 minutes (LGG), and the case (C) where 100 μm LGG was administered thereto for 10 minutes after 150 μm PHT was administered in advance. In FIG. 5, the error bars indicate standard errors SE, and the numerical values in parentheses indicate the number of ROIs analyzed. […]
# MIN6 [4] = test: Proportion of dead cells, MIN6 at long DIV (18 to 19 DIV) in culture; details: MIN6 at 19 DIV for LGG, 18 DIV for DGG; administered for 10 minutes; FIG. 6
# Description: as §1
# Specifically, LGG and DGG were administered to MIN6 at 0 to 1,000 μm at 4 DIV in culture, and after the elapse of 90 minutes, the proportion of the number of dead cells evaluated using a dead cell marker propidium iodide (PI) was measured as a function of their concentrations. […] However, the vertical axis is a value (%) normalized by the fluorescence intensity of the total number of cells assuming that the number of dead cells at a concentration of 1,000 μm is the total number of cells in each well. The broken line is an eye guide.
# Furthermore, the same experiment as that of FIG. 2 was carried out for MIN6 at long DIV in culture. However, in either case, observations were carried out after DGG or LGG was administered for 10 minutes.
smiles,measurement,setting,value
"CC[P+](CC)(CC)[Au-][S]C1OC(CO)C(O)C(O)C1O [LGG, (1-thio-β-L-glucopyranoside) (S-triethylphosphine) gold (I)]",safety against normal cells relative to DGG,"MIN6 [1]; MIN6 at 4 DIV (mostly normal β-cells), from 50% effective doses",approximately 10 times
same,concentration above which cell death evaluated using PI becomes detectable,"MIN6 [1]; MIN6 at 4 DIV, 90 minutes after administration, interpolation of FIG. 2",10 μm
same,cell conditions under optical microscope,"MIN6 [2]; 100 μm LGG for 10 minutes after 150 μm PHT in advance, FIG. 3C, 4f-4i",cells indicating deterioration of the cell conditions are hardly recognized
same,cell conditions under optical microscope,"MIN6 [2]; 100 μm LGG for 10 minutes, no PHT, FIG. 3B, 4e",a part of cytoplasm in some cells protrudes outside the cells
same,fluorescence intensity of calcein (cell activity): decrease due to LGG in presence of PHT,MIN6 [3]; 100 μm LGG for 10 minutes after 150 μm PHT in advance,significantly inhibited by PHT
same,fluorescence intensity of calcein (cell activity) versus control,"MIN6 [3]; 100 μm LGG for 10 minutes, no PHT",significantly reduced activities of MIN6 cells
same,concentration dependence of the proportion of the number of dead cells,MIN6 [4],almost matches the DGG concentration dependence
